Patent US20230338337A1, “BIOMARKERS FOR CANCER THERAPY USING MDM2 ANTAGONISTS” (OTSUKA PHARMACEUTICAL CO., LTD., priority 2019, published 2023)
Where two headings read alike, the source gives them in different places.

Assays:
OCI-AML3 cells = experiment: Induction of apoptosis by cleaved caspase-3 cytometry; assay type: cell-based; settings: 0.1 μM COMPOUND 1 with 1 μM ASTX660 and 1 ng/ml TNF-alpha, 72 h
[1] = tested on: SN40R2 (p53 mutated, MDM2 amplified osteosarcoma); experiment: Protocol A: SRB growth inhibition assay; settings: read-out: SN40R2 IC50 (μM) (Protocol A)
SN40R2 = experiment: Protocol B: CellTiter-Glo cell viability assay; settings: read-out: SN40R2 (Protocol B) % inhibition at 10, Protocol B
SJSA-1 = experiment: Protocol B: CellTiter-Glo cell viability assay
[2] = tested on: multiple myeloma (MM) cells; settings: in vitro and ex vivo; cited from earlier work
human leukaemia models = settings: mice; by inducing MDM2 degradation; cited from earlier work
cancer cell lines = settings: cited from earlier work
tumour growth = settings: cited from earlier work

Question: Which “level of apoptosis (cleaved caspase-3)” value (OCI-AML3 cells) does the source give for `C[C@@H]1CN(CC(=O)N2CC(C)(C)c3nc(CO)c(Cc4ccc(F)cc4)cc32)[C@@H](CN2CCOC[C@H]2C)CN1` [ASTX660, 1-{6-[(4-fluorophenyl)methyl]-5-(hydroxymethyl)-3,3-dimethyl-1H,2H,3H-pyrrolo[3,2-b]pyridin-1-yl}-2-[(2R,5R)-5-methyl-2-{[(3R)-3-methylmorpholin-4-yl]methyl}piperazin-1-yl]ethan-1-one, reference compound] here?
Answer: sensitises the OCI-AML3 line to apoptosis induction by COMPOUND 1

Question: What does the source list for `CCC(O)(c1cc(F)c2c(c1)C(=O)N(Cc1ncc(Cl)cc1O)[C@@]2(OCCO)c1ccc(Cl)cc1)c1cn(C)cn1` (stereo partly drawn) [Example 443, (3R)-2-[(5-chloro-3-hydroxypyridin-2-yl)methyl]-3-(4-chlorophenyl)-4-fluoro-6-[1-hydroxy-1-(1-methyl-1H-imidazol-4-yl)propyl]-3-(2-hydroxyethoxy)-2,3-dihydro-1H-isoindol-1-one]?
Answer: IC50 [1]: 38 µM; inhibition at 10 µM (SN40R2): 3%; IC50 (SJSA-1; Homo sapiens, SJSA-1, read-out: SJSA1 IC50 (μM) (Protocol B), Protocol B): 0.093 µM

Question: Which IC50 [1] does the source give for `CCC(O)(c1cc(F)c2c(c1)C(=O)N(Cc1ccc(C#N)cn1)[C@@]2(O[C@H]1CCOC1)c1ccc(Cl)cc1)C1(F)CCOCC1` (stereo partly drawn) [Example 446, 6-{[(1R)-1-(4-chlorophenyl)-7-fluoro-5-[1-(4-fluorooxan-4-yl)-1-hydroxypropyl]-3-oxo-1-[(3S)-oxolan-3-yloxy]-2,3-dihydro-1H-isoindol-2-yl]methyl}pyridine-3-carbonitrile] here?
Answer: 29 µM

Question: And the IC50 (SJSA-1; read-out: SJSA1 IC50 (μM) (Protocol B), Protocol B)?
Answer: 0.023 µM

Question: For `c1ccc2c(CCNc3ccc(Nc4ccncc4)cc3)c[nH]c2c1` [JNJ 26854165], which “activity against multiple myeloma (MM) cells” value [2] is on record?
Answer: potent activity

Question: With `O=C(O)C(F)(F)F.O=C1CCC(N2Cc3c(C#CCCCNC(=O)c4ccc(NC(=O)[C@@H]5NC6(CCCCC6)[C@@]6(C(=O)Nc7cc(Cl)ccc76)[C@H]5c5cccc(Cl)c5F)cc4)cccc3C2=O)C(=O)N1` (stereo partly shown) [LE-004] as the compound, how does the “growth inhibition in human leukaemia models” value (human leukaemia models) read?
Answer: efficiently inhibited growth

Question: With `CC(C)(C)C[C@@H]1N[C@@H](C(=O)N[C@H]2CC[C@H](O)CC2)[C@H](c2cccc(Cl)c2F)[C@]12C(=O)Nc1cc(Cl)ccc12` [MI-773] as the compound, how does the cell growth inhibition (cancer cell lines) read?
Answer: potently inhibits cell growth

Question: For `COc1cc(C(N)=O)ccc1NC(=O)[C@@H]1N[C@@H](CC(C)(C)C)C2(C(=O)Nc3cc(Cl)ccc32)[C@H]1c1cccc(Cl)c1F` (stereo partly shown) [RO-8994], which tumour growth inhibition (tumour growth) is on record?
Answer: inhibit tumour growth
